Assay results as given in patent US20100093865A1, “SULPHUR-LINKED COMPOUNDS FOR TREATING OPHTHALMIC DISEASES AND DISORDERS” (Acucela, Inc., priority 2008, published 2010).

Experiments:
[1] = target: T1, isomerase (Mus musculus, UniProt Q91ZQ5); assay: In vivo murine isomerase assay; conditions: oral, mice, 11-cis-retinal (oxime) recovery after photobleaching
T1 construct: from tissue; host or cells: eye of living mice (CD-1; Balb/c also mentioned)
T1 sequence (Q91ZQ5 1-533): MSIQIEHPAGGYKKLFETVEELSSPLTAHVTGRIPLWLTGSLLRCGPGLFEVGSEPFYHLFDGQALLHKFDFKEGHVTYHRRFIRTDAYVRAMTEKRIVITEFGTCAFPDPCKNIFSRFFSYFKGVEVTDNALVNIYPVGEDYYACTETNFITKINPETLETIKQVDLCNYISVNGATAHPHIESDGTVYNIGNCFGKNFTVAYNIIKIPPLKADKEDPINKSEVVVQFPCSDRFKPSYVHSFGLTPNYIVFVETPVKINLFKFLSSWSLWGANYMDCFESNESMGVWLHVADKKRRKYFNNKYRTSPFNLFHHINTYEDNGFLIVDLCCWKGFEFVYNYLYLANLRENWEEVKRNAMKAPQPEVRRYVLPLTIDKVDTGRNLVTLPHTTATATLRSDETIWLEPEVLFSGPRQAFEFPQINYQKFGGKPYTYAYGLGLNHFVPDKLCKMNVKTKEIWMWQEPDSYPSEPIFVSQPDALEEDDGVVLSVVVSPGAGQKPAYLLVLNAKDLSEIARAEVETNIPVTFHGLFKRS
Procedure: The capability of sulphur-linked compounds to inhibit isomerase is determined by an in vivo murine isomerase assay. Brief exposure of the eye to intense light (“photobleaching” of the visual pigment or simply “bleaching”) is known to photo-isomerize almost all 11-cis-retinal in the retina. The recovery of 11-cis-retinal after bleaching can be used to estimate the activity of isomerase in vivo. Delayed recovery, as represented by lower 11-cis-retinal oxime levels, indicates inhibition of isomerization reaction. […] See also Deigner et al., Science, 244: 968-71 (1989); Gollapalli et al., Biochim Biophys Acta. 1651: 93-101 (2003); Parish, et al., Proc. Natl. Acad. Sci. USA, 14609-13 (1998); Radu, et al., Proc Natl Acad Sci USA 101: 5928-33 (2004).
About six-week old dark-adapted CD-1 (albino) male mice are orally gavaged with compound (0.01-25 mg/kg) dissolved in an appropriate amount of oil (about 100 μl corn oil containing 10% ethanol, at least five animals per group). Mice are gavaged with the sulphur-linked compounds described in the present disclosure. After about 2-24 hours in the dark, the mice are exposed to photobleaching of about 5,000 lux of white light for 10 minutes. The mice are allowed to recover for about 2 hours in the dark. The animals are then sacrificed by carbon dioxide inhalation. Retinoids are extracted from the eye and the regeneration of 11-cis-retinal is assessed at various time intervals.
All steps are performed in darkness with minimal redlight illumination (low light darkroom lights and red filtered flashlights for spot illumination as needed) (see, e.g., Maeda et al., J. Neurochem 85:944-956, 2003; Van Hooser et al., J Biol Chem 277:19173-82, 2002). After the mice are sacrificed, the eyes are immediately removed and placed in liquid nitrogen for storage.
The eyes are placed in about 500 μL of bis-tris propane buffer (10 mM, pH ˜7.3) and about 20 μL of 0.8M hydroxylamine (pH-7.3). The eyes are cut up into small pieces with small iris scissors and then thoroughly homogenized at 30000 rpm with a mechanical homogenizer (Polytron PT 1300 D) in the tube until no visible tissue remains. About […] of methanol and about 500 μL of heptane are added to each tube. The tubes are attached to a vortexer so that the contents are mixed thoroughly for about 15 minutes in room temperature. The organic phase is separated from the aqueous phase by centrifugation for about 10 min at 13K rpm, 4° C. 240 μL of the solution from the top layer (organic phase) is removed and transferred to clean 300 μl glass inserts in HPLC vials using glass pipette and the vials are crimped shut tightly.
The samples are analyzed on an Agilent 1100 HPLC system with normal phase column: SILICA (Beckman Coutlier, dp 5 μm, […]). The running method has a flow rate of 1.5 ml/min; solvent components are 15% solvent 1 (1% isopropanol in ethyl acetate), and 85% solvent 2 (100% hexanes). Loading volume for each sample is about 100 μl; detection wavelength is 360 nm. The area under the curve for 11-cis-retinal oxime is calculated by Agilent Chemstation software and recorded manually. Data processing is performed using Prizm software.
[…] control mice (no compound administered) are sacrificed fully dark-adapted and the eye retinoids analyzed. Light (bleached) control mice (no compound administered) are sacrificed and retinoids isolated and analyzed immediately after light treatment.
A dose response in vivo isomerase inhibition study is performed with the compounds of the present disclosure. Male or female mice (such as Balb/c mice) (at least about 8/group) are dosed orally with about 0.01 to 25 mg/kg of the compounds of HCl salts of the compounds in sterile water as solution, and photobleached about 4 hours after dosing. Recovery and retinoid analysis is performed as described above. Dark control mice are vehicle-only treated, sacrificed fully dark adapted without light treatment, and analyzed. […]

[2] = target: T2, recombinant human RPE65 and LRAT (visual cycle isomerase) (Homo sapiens, UniProt Q16518); assay: Human in vitro isomerase inhibition assay; assay type: biochemical
T2 construct: expressed in transfected cells; host or cells: HEK293 cell clone (homogenate); CRALBP made in E. coli TOP10
T2 sequence (Q16518 2-533 limits assumed): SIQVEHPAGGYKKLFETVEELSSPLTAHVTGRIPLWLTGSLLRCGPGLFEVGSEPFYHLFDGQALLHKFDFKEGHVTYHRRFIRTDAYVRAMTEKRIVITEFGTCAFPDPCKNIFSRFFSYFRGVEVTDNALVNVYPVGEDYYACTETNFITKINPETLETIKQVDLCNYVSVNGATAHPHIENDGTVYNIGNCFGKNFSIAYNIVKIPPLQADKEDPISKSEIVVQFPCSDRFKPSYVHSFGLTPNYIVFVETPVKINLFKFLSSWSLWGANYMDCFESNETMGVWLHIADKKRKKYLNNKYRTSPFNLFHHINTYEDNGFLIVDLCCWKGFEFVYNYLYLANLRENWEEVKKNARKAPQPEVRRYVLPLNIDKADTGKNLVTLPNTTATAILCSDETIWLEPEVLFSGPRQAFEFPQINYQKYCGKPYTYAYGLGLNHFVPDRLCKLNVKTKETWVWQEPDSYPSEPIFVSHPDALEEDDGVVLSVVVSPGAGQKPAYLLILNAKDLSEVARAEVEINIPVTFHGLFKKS
Procedure: The capability of sulphur-linked compounds to inhibit the activity of a visual cycle isomerase was determined in vitro either in a human or bovine-based assay system.
Recombinant human apo cellular retinaldehyde-binding protein (CRALBP) was cloned and expressed according to standard methods in the molecular biology art (see Crabb et al., Protein Science 7:746-57 (1998); Crabb et al., J. Biol. Chem. 263:18688-92 (1988)). Briefly, total RNA was prepared from confluent ARPE19 cells (American Type Culture Collection, Manassas, Va.), cDNA was synthesized using an oligo(dT)12-18 primer, and then DNA encoding CRALBP was amplified by two sequential polymerase chain reactions (see Crabb et al., J. Biol. Chem. 263:18688-92 (1988); Intres, et al., J. Biol. Chem. 269:25411-18 (1994); GenBank Accession No. L34219.1). The PCR product was sub-cloned into pTrcHis2-TOPO TA vector according to the manufacturer's protocol (Invitrogen Inc., Carlsbad, Calif.; catalog no. K4400-01), and then the sequence was confirmed according to standard nucleotide sequencing techniques. Recombinant 6×His-tagged human CRALBP was expressed in One Shot TOP 10 chemically competent E. coli cells (Invitrogen), and the recombinant polypeptide was isolated from E. coli cell lysates by nickel affinity chromatography using nickel (Ni) Sepharose XK16-20 columns for HPLC (Amersham Bioscience, Pittsburgh, Pa.; catalog no. 17-5268-02). The purified 6×His-tagged human CRALBP was dialyzed against 10 mM bis-tris-Propane (BTP) and analyzed by SDS-PAGE. The molecular weight of the recombinant human CRALBP was approximately 39 kDal.
The concentration dependent effect of the compounds disclosed herein on the retinol isomerization reaction were evaluated with a recombinant human enzyme system. […] A homogenate of HEK293 cell clone expressing recombinant human RPE65 and LRAT were the source of the visual enzymes, and exogenous all-trans-retinol (about 20 μM) was used as the substrate. Recombinant human CRALBP (about 80 ug/mL) was added to enhance the formation of 11-cis-retinal. The 200 μL Bis-Tris Phosphate buffer (10 mM, pH 7.2) based reaction mixture also contains 0.5% BSA, and 1 mM NaPPi. In this assay, the reaction was carried out at 37° C. in duplicates for one hour and was terminated by addition of 300 μL methanol. The amount of reaction product, 11-cis-retinol, was measured by HPLC analysis following Heptane extraction of the reaction mixture. […] The ability of the compounds disclosed herein to inhibit isomerization reaction is quantified and the respective IC50 value is determined. Table 2 summarizes the IC50 values of all the compounds of the present disclosure. […] The production of 11-cis-retinol was measured at different doses of compound administration.

Compound	% Inibition 1.0 mg/kg, 4 h [1]	% Inibition 0.3 mg/kg, 4 h [1]	inhibition of 11-cis-retinol production [2]
NC/C=C/c1cccc(S(=O)(=O)CC2CCCCC2)c1 [Example 14, (E)-3-(3-(cyclohexylmethylsulfonyl)phenyl)prop-2-en-1-amine]	–	–	dose-dependent inhibition
NC/C=C/c1cccc(SCC2CCCCC2)c1 [Example 11, (E)-3-(3-(cyclohexylmethylthio)phenyl)prop-2-en-1-amine]	–	–	dose-dependent inhibition
NCCC(=O)c1cccc(S(=O)(=O)CC2CCCCC2)c1 [Example 10, 3-amino-1-(3-(cyclohexylmethylsulfonyl)phenyl)propan-1-one]	79.3%	–	–
[2H]C([2H])(C1CCCCC1)S(=O)(=O)c1cccc(C(O)CCN)c1 (centres unmarked) [Example 50, 3-amino-1-(3-(cyclohexyldideuteromethylsulfonyl)phenyl)propan-1-ol]	−1.6%	–	–
NCC[C@@H](O)c1cccc(SCC2CCCCC2)c1 [Example 17, (R)-3-amino-1-(3-(cyclohexylmethylthio)phenyl)propan-1-ol]	33.4%	–	dose-dependent inhibition
CCCCSc1cccc([C@H](O)CCN)c1 [Example 18, (R)-3-amino-1-(3-(butylthio)phenyl)propan-1-ol]	68.6%	–	–

Continued, values first:

% Inibition 1.0 mg/kg, 4 h [1]	% Inibition 0.3 mg/kg, 4 h [1]	inhibition of 11-cis-retinol production [2]	Compound
87.1%	–	–	[2H]C([2H])(N)CC(O)c1cccc(SCC2CCCCC2)c1 (centres unmarked) [Example 45, 3-amino-1-(3-(cyclohexylmethylthio)phenyl)-3,3-dideuteropropan-1-ol]
−8.5%	–	–	[2H]C([2H])(Sc1cccc(C(O)CCN)c1)C1CCCCC1 (centres unmarked) [Example 49, 3-amino-1-(3-(cyclohexyldideuteromethylthio)phenyl)propan-1-ol]
−12.1%	1.1%	dose-dependent inhibition	NCCCc1cccc(S(=O)(=O)CC2CCCCC2)c1 [Example 5, 3-(3-(cyclohexylmethylsulfonyl)phenyl)propan-1-amine]
14.8%	–	–	NCCC(O)c1cccc(SCC2(O)CCCCC2)c1 (centres unmarked) [Example 27, 1-((3-(3-amino-1-hydroxypropyl)phenylthio)methyl)cyclohexanol]
20.3%	3.7%	–	NCCC(O)c1cccc(S(=O)(=O)CC2CCCCC2)c1 (centres unmarked) [Example 9, 3-amino-1-(3-(cyclohexylmethylsulfonyl)phenyl)propan-1-ol]
−14.2%	–	–	NCCC(O)c1cccc(SCC2CCCCC2)c1 (centres unmarked) [Example 8, 3-amino-1-(3-(cyclohexylmethylthio)phenyl)propan-1-ol]
−4.9%	–	–	[2H]C1([2H])C([2H])([2H])C([2H])([2H])C([2H])(CSc2cccc(C(O)CCN)c2)C([2H])([2H])C1([2H])[2H] (centres unmarked) [Example 53, 3-amino-1-(3-((perdeuterocyclohexyl)methylthio)phenyl)propan-1-ol]
